# Measured values as given in patent publication US10940139B2, “Compounds that interact with the Ras superfamily for the treatment of cancers, inflammatory diseases, rasopathies, and fibrotic disease” (Shy Therapeutics LLC, priority 2017, dated 2021).
# Legend:
# Rac-1 = Rac-1 (Homo sapiens (Human), UniProt P63000); assay: Rac inhibition assay (labeled GTP); assay type: binding; conditions: read-out: Rac-1 % Inh.
# Rho-A = Rho-A (Homo sapiens (Human), UniProt P61586); assay: Rho inhibition assay (labeled GTP); assay type: binding; conditions: read-out: Rho-A % Inh.
# [1] = biological target: KRas G12D/Q61H double mutant (Homo sapiens (Human), UniProt P01116, G12D/Q61H); assay: Ras GTP binding domain inhibition assay (labeled GTP); conditions: at 20 μM; read-out: KRas G12D Q61H % Inh.
# How it was run: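 His-tagged KRas protein (3-10 μg/ml) was captured overnight at 4° C on nickel-coated wells in 50 mM Tris pH 7.5, 1 mM MgCl2, 1 mM DTT. Bound labeled GTP was read by fluorescence after washing.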
# KRas G12D/Q61H double mutant, sequence (P01116-2 other isoform, or with tags, fused parts or gaps G12D/Q61H): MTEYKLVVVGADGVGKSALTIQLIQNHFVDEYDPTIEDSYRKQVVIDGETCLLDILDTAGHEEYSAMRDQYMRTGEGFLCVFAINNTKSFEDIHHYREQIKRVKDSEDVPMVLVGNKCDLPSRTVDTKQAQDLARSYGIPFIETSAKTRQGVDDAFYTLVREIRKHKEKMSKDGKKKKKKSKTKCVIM
# Rho-A, sequence (P61586 whole entry, the tested form may be a part): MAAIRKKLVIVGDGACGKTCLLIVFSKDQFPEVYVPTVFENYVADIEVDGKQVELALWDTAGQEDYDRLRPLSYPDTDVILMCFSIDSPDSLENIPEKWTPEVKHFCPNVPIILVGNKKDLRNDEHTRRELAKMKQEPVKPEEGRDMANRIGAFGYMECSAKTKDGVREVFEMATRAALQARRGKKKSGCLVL
SMILES,inhibition at 20 µM (Rac-1) [%],inhibition at 20 µM (Rho-A) [%],inhibition at 20 µM [1] [%]
COc1cnc(C2(N)CCCC2)nc1O [drawing 3809],1 to 25,1 to 25,1 to 25
COc1cnc(C(C)(C)N)nc1O [drawing 3810],1 to 25,0,1 to 25
COC(=O)c1c(C)sc2c(N)nc(-c3ccccn3)nc12 [drawing 3818],76 to 100,76 to 100,51 to 75
O=C(NCCc1ccncn1)c1csc2nc(-c3ccccn3)nc(N3CCOCC3)c12 [drawing 3819],51 to 75,51 to 75,25 to 50
CC(C)c1nn(C)cc1-c1csc2c(O)nc(-c3ccccn3)nc12 [drawing 3820],51 to 75,51 to 75,51 to 75
N#Cc1cccc(-c2csc3c(O)nc(-c4ccccn4)nc23)c1 [drawing 3822],1 to 25,1 to 25,1 to 25
Oc1nc(-c2ccccn2)nc2c(-c3cncnc3)csc12 [drawing 3823],1 to 25,1 to 25,1 to 25
Cc1c(-c2csc3c(O)nc(-c4ccccn4)nc23)cnn1C [drawing 3824],76 to 100,76 to 100,51 to 75
Oc1nc(-c2ccccn2)nc2c(-c3cncc(C(F)F)c3)csc12 [drawing 3826],1 to 25,0,1 to 25
Cc1sc2c(O)nc(-c3ccccn3)nc2c1C(=O)N1CCN(c2ccccc2)CC1 [drawing 3827],76 to 100,76 to 100,25 to 50
Oc1nc(-c2ccccn2)nc2c(C3CCCCC3)csc12 [drawing 3830],25 to 50,51 to 75,25 to 50
COc1cnc(CNC(=O)c2csc3nc(-c4ccccn4)nc(N)c23)[nH]c1=O [drawing 3835],25 to 50,51 to 75,25 to 50
Oc1nc(-c2ccccn2)nc2c(CC3CNC3)csc12 [drawing 3837],76 to 100,76 to 100,25 to 50
COc1cnc(CNC(=O)c2csc3c(O)nc(-c4ccccn4)nc23)[nH]c1=O [drawing 3838],1 to 25,1 to 25,1 to 25
COc1cnc(CNC(=O)c2cc3nc(-c4ccccn4)nc(O)c3s2)[nH]c1=O [drawing 3839],51 to 75,51 to 75,25 to 50
Cc1sc2c(O)nc(-c3ccccn3)nc2c1Br [drawing 3840],25 to 50,51 to 75,25 to 50
COc1cnc(CNC(=O)c2sc3c(O)nc(-c4ccccn4)nc3c2C)[nH]c1=O [drawing 3842],0,1 to 25,1 to 25
Cn1cnc(-c2nc(O)c3c(-c4ccccc4)c(-c4ccncc4)sc3n2)c1 [drawing 3846],0,0,1 to 25
COCCNc1nc(-c2ccccn2)nc(-c2cccc(OCCN(C)C)c2)c1Oc1ccccc1 [drawing 3847],1 to 25,1 to 25,1 to 25
OCC1(c2ccc(-c3nc(-c4ccccn4)nc(-c4ccc(C5(CO)CC5)cc4)c3Oc3ccccc3)cc2)CC1 [drawing 3850],25 to 50,25 to 50,1 to 25
Cn1ccnc1-c1nc(O)c2c(-c3ccccc3)c(-c3ccccc3)sc2n1 [drawing 3854],1 to 25,1 to 25,1 to 25
Cn1cnc(-c2nc(O)c3c(-c4ccccc4)c(-c4ccc(CNC(=O)OC(C)(C)C)cc4)sc3n2)c1 [drawing 3855],25 to 50,25 to 50,1 to 25
